Test results: patent US20230416791A1, “METHOD TO PRODUCE BRANCHED-CHAIN POLYHYDROXYALKANOATES AND BRANCHED-CHAIN 3-HYDROXYACIDS FROM GLUCOSE” (Alliance for Sustainable Energy, LLC, priority 2022, published 2023)
Where a chain is given by its changes, count along the chain named. Numbers in names are those of the source.

What was measured:
[1] = tested on: ΔmadB ΔfabH1 P. putida; assay: Growth curves with straight-chain fatty acid supplementation (microplate reader); format: cell-based, Pseudomonas putida KT2440; conditions: fatty acid sodium salt at 100 μg/mL, modified M9 with glucose, 30° C.
Experimental: (§1) Microplate reader experiments. Microplate reader experiments were performed by inoculating seed cultures from glycerol stocks into 10 mL of LB Broth (Miller; Sigma-Aldrich) with appropriate antibiotics in a 125 mL flask and incubating overnight at 30° C. (P. putida) or 37° C. (E. coli) and 225 rpm. Overnight cultures were then used to inoculate a second seed culture into 10 mL of LB Broth (Miller; Sigma-Aldrich) with appropriate antibiotics in a 125 mL flask starting at an optical density of 0.2 measured at 600 nm (0D600) using a GENESYS™ 140 Visible Light Spectrophotometer (Thermo Scientific). The second seed cultures were incubated at 30° C. (P. putida) or 37° C. (E. coli) at 225 rpm for 2-4 hrs until an OD600 of approximately 2 was reached. The second seed cultures were centrifuged at 8,000 rpm for 3 min, the pellets were washed with 1× M9, minimal salts (Sigma-Aldrich) three times, and resuspended to an OD600=3.0. Cells (10 μL) were transferred to five replicate wells in a 100-well Honeycomb 2 plate (Growth Curves USA) containing 290 μL of growth medium, corresponding to initial OD600=0.1. E. coli strains were grown in LB Broth (Miller; Sigma-Aldrich) at 37° C. and supplemented with 50 μg/mL kanamycin and 0.1 mM isopropylthio-β-galactoside (IPTG; GoldBio) when appropriate. P. putida strains were grown in modified M9 minimal media containing 6.78 g/L Na2HPO4, 3 g/L KH2PO4, 1 g/L NH4C1, 0.5 g/L NaCl, 2 mM MgSO4, 100 μM CaCl2, and 2 g/L glucose at 30° C. For fatty acid supplementation experiments, sodium salts of a given fatty acid (Sigma-Aldrich) were added to a final concentration of 100 μg/mL. OD600 measurements were acquired every 15 min with a Bioscreen C Pro (Growth Curves USA) and plate was shaken continuously. Maximum specific growth rates were calculated using a spline model (https://github.com/scott-saunders/growth_curve_fitting).

[2] = tested on: P. putida KT2440 ΔmadB ΔfabH1; assay: Growth of P. putida ΔmadB ΔfabH1 supplemented with straight-chain fatty acids; format: cell-based, Pseudomonas putida KT2440; conditions: 100 μg/mL, modified M9 minimal medium, 30° C.
Experimental: as §1

[3] = tested on: MadB; assay: Transformation of non-EcAcpP substrate by MadB (HPLC / LC-MS detection); format: biochemical, Pseudomonas putida KT2440; conditions: 1 mM substrate, 5 μM MadB, HEPES pH 7.5, room temperature
Experimental: Transformation of non-EcAcpP substrate by MadB. […] The reaction contained 1 mM of the alternate substrate and 5 μM of MadB in HEPES (I=0.1 M) pH 7.5 supplemented with 10 mM MgCl2 and 1 mM TCEP. The reaction was incubated at room temperature with an intermittent agitation for −1 hour prior to being passed through a 0.2 μm filter and frozen until further analysis.
Detection of various CoA analytes in the samples were performed on an Agilent 1200 HPLC system (Agilent Technologies) equipped with an Agilent 6120 mass spectrometer detector (MS). Each sample and standard were injected at a volume of 2 μL on a Phenomenex Luna C18(2)-HST column 100A′, […], 2.0×100 mm column (Phenomenex). The column temperature was maintained at 45° C. and the buffers used to separate the analytes of interest was 0.1% formic acid in water (A)/0.1% formic acid in acetonitrile (B). A gradient program was used to separate the analytes of interest: (A)=100% and (B)=0% at time t=0; (A)=100% and (B)=0% at t=1 min; (A)=50% and (B)=50% at t=7.65 min; (A)=30% and (B)=70% at t=9.33 min; (A)=30% and (B)=70% at t=10.67 min; (A)=100% and (B)=0% at t=10.68 min; (A)=100% and (B)=0% at t=13 min. The flow rate was held constant at 0.50 mL/min resulting in a run time of 13 minutes. The MS system was setup in positive electrospray ionization mode with a gas temperature of 350° C., drying gas at 12 L/min, nebulizer pressure set to 35 psig, and a Vcap voltage of 3000v. A total of four different masses in SIM mode from the MS detector were used to determine the presence and or absence of each analyte of interest. […] One standard from each analyte was used to determine the elution order and retention times of the compounds.
Detection of malonic and acetic acid was performed on an Agilent 1290 HPLC system (Agilent Technologies) equipped with an Agilent G7117A diode array detector (DAD). NREL's laboratory analytical procedure “Determination of Structural Carbohydrates and Lignin in Biomass” (Sluiter et al., 2012) HPLC method was used to detect the analytes of interest as outlined below. […]

[4] = biological target: T1, Pseudomonas putida KT2440 MadB (PP_0262) variant His46Ala (H46A) (Pseudomonas putida, UniProt Q88R72, H46A); assay: ITC steady-state kinetics of malonyl-CoA decarboxylation
T1 sequence (Q88R72 1-151 H46A): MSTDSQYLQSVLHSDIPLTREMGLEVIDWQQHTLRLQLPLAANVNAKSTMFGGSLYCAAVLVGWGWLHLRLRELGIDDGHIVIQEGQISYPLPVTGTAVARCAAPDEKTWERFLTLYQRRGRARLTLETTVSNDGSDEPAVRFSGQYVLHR
From the text: (§2) Kinetic determination using ITC.
(§3) Both variants were purified similarly to the wild-type MadB.

[5] = biological target: T2, Pseudomonas putida KT2440 MadB (PP_0262) variant Asn45Ala (N45A) (Pseudomonas putida, UniProt Q88R72, N45A); assay: as above
T2 sequence (Q88R72 1-151 N45A): T1 sequence (Q88R72 1-151 H46A) with N45A, A46H
From the text: as §2, §3

[6] = biological target: T3, Pseudomonas putida KT2440 MadB (PP_0262, malonyl-ACP decarboxylase), wild type (Pseudomonas putida, UniProt Q88R72); conditions: malonyl-CoA decarboxylation, ITC, 30° C., pH 7.5
T3 sequence (Q88R72 1-151): T1 sequence (Q88R72 1-151 H46A) with A46H

[7] = substrate: CC(C)(COP(=O)(O)OP(=O)(O)OC[C@H]1O[C@@H](n2cnc3c(N)ncnc32)[C@H](O)[C@@H]1OP(=O)(O)O)[C@@H](O)C(=O)NCCC(=O)NCCSC(=O)CC(=O)O; assay: purified protein, by the assay type; conditions: other: malonyl-CoA decarboxylation, ITC, 30° C., pH 7.5
[8] = malonyl-CoA, His46Ala vs wild-type
[9] = malonyl-CoA, Asn45Ala vs wild-type

CC(=O)O [C2]
effect on growth of ΔmadB ΔfabH1 [1]: had no effect on growth | effect of fatty acid supplementation on growth [2]: no effect on growth

CCCC(=O)O [C4]
effect on growth of ΔmadB ΔfabH1 [1]: inhibited | effect of fatty acid supplementation on growth [2]: inhibited

CCCCCC(=O)O [C6]
effect on growth of ΔmadB ΔfabH1 [1]: appeared to improve growth, albeit less significantly | effect of fatty acid supplementation on growth [2]: improve growth, albeit less significantly

CCCCCCCC(=O)O [C8]
effect on growth of ΔmadB ΔfabH1 [1]: dramatic improvement of growth | effect of fatty acid supplementation on growth [2]: dramatic improvement of growth

CCCCCCCCCC(=O)O [C10]
effect on growth of ΔmadB ΔfabH1 [1]: dramatic improvement of growth | effect of fatty acid supplementation on growth [2]: dramatic improvement of growth

O=C(O)CC(=O)O [malonate]
decarboxylation by MadB [3]: not

CC(C)(COP(=O)(O)OP(=O)(O)OC[C@H]1O[C@@H](n2cnc3c(N)ncnc32)[C@H](O)[C@@H]1OP(=O)(O)O)[C@@H](O)C(=O)NCCC(=O)NCCSC(=O)CC(=O)O [malonyl-CoA]
decarboxylation by MadB [3]: capable of decarboxylating | Kcat ([4]; malonyl-CoA decarboxylation, His46Ala, ITC, 30° C., pH 7.5): 0.45 ± 0.01 s⁻¹ | Michaelis constant relative to wild-type [4, 8]: about half | lower catalytic efficiency compared to the wild-type enzyme [4, 8]: 1.5 fold | Kcat ([5]; malonyl-CoA decarboxylation, Asn45Ala, ITC, 30° C., pH 7.5): 0.06 ± 0.01 s⁻¹ | Michaelis constant relative to wild-type [5, 9]: about half | lower catalytic efficiency compared to the wild-type enzyme [5, 9]: 13 fold | Kcat [6]: 1.4 ± 0.1 s⁻¹

CC(C(=O)O)C(=O)SCCNC(=O)CCNC(=O)[C@H](O)C(C)(C)COP(=O)(O)OP(=O)(O)OC[C@H]1O[C@@H](n2cnc3c(N)ncnc32)[C@H](O)[C@@H]1OP(=O)(O)O (stereo partly shown) [methylmalonyl-CoA]
decarboxylation by MadB [3]: capable of decarboxylating

B1: Pseudomonas putida KT2440 MadB (PP_0262, malonyl-ACP decarboxylase), wild type (Pseudomonas putida KT2440) (protein)
chain: T1 sequence (Q88R72 1-151 H46A) with A46H
Km ([7]; wild-type MadB): 12 ± 1 mM | kcat ([7]; wild-type MadB): 1.4 s⁻¹ | kcat/Km ([7]; wild-type MadB): 120 M⁻¹ s⁻¹

B2: Pseudomonas putida KT2440 MadB (PP_0262) variant Asn45Ala (N45A) (Pseudomonas putida KT2440; N45A) (protein)
chain: T1 sequence (Q88R72 1-151 H46A) with N45A, A46H
Km ([7]; Asn45Ala): 6.9 ± 0.5 mM

B3: Pseudomonas putida KT2440 MadB (PP_0262) variant His46Ala (H46A) (Pseudomonas putida KT2440; H46A) (protein)
chain: T1 sequence (Q88R72 1-151 H46A)
Km ([7]; His46Ala): 5.7 ± 0.2 mM
